The values below come from patent US6074859A, “Mutant-type bioluminescent protein, and process for producing the mutant-type bioluminescent protein” (Kikkoman Corporation, priority 1998, dated 2000).

Broadly, the Km is the substrate concentration at which the rate is half of its maximum.

The subject of data set [1] is HHA1 luciferase (fusion of Luciola lateralis luciferase N-terminal, from pHLf7-217Leu, and Photinus pyralis luciferase C-terminal, SEQ ID NO:10). In words: Km for substrate ATP, peak light emission (Tricine pH 7.8). Type of data set: biochemical. Conditions: read-out: Km (affinity for ATP); ATP 0 to 2 mM, 50 mM Tricine buffer (pH 7.8), 0.2 mM luciferin, 10 mM MgSO4. The procedure:
50 ng of the above EcoRV--EcoRV fragment from pT3/T7-LUC and 50 ng of the above EcoRV-NaeI fragment from pHLf7-217Leu were incubated at 15° C. for 16 hours in 20 μ l DNA ligase buffer in the presence of 300 U of T4 DNA ligase. The reaction mixture was used to transform E. coli JM 109 by the Hana-han method [DNA Cloning, 1, 109-135 (1985)], and ampicillin-resistant colonies were selected. A crude enzyme was prepared from the selected colonies in the method described in Example 1, and a plasmid was removed by the alkali-SDS method from those having luminescence activity, and the structure of the plasmid was confirmed. This plasmid was subjected to reaction with a dye primer tuck sequencing kit (Applied Biosystems) and analyzed by electrophoresis with an ABI 373A DNA sequencer (Applied Biosystems) to determine its nucleotide sequence (SEQ ID NO:9). The amino acid sequence of a polypeptide estimated to be translated from said nucleotide sequence is shown in SEQ ID NO:10. The plasmid thus obtained was designated pHHA1.
(§1) Further, its crude enzyme solution was prepared using the method described in Example 1 and the enzyme was purified in a method described in Japanese Patent Application Laid-Open Publication No. 141592/89. The purified enzyme was designated HHA1 luciferase.

In data set [2] the target is Photinus pyralis luciferase, wild type (Photinus pyralis, UniProt P08659). In words: Km for substrate ATP, peak light emission (HEPES pH 7.5). Type of data set: biochemical. Particulars: read-out: Km for the substrate ATP; ATP 0 to 2 mM, 50 mM HEPES (pH 7.5), 0.2 mM luciferin, 10 mM MgSO4.
The target of data set [3] is Photinus pyralis luciferase (Photinus pyralis, UniProt P08659). In words: Km for substrate ATP, peak light emission (Tricine pH 7.8). It is filed as biochemical. Particulars: read-out: Km (affinity for ATP); ATP 0 to 2 mM, 50 mM Tricine buffer (pH 7.8), 0.2 mM luciferin, 10 mM MgSO4. The procedure: as §1
The subject of data set [4] is GGA1 luciferase variant GGA1 V290I (290-position Val to Ile). In words: Catalytic efficiency (Vmax/Km) toward ATP, integrated light emission. Type of data set: biochemical, Luciola cruciata / Photinus pyralis. Particulars: ATP 0 to 1.0×10^-3 mM, 50 mM Tricine buffer (pH 7.8), 2.0 mM luciferin, 10 mM MgSO4; light integrated 5 to 15 seconds. Here is the method:
(§2) The resulting transformant was inoculated on an LB-amp plate [1.0% (W/V) Bacto-trypton, 0.5% (W/V) yeast extract, 0.5% (W/V) NaCl, 1.5% (W/V) agar and 50 μ g/ml ampicillin] and cultured at 37° C. for 12 hours. The resulting colonies were transferred onto a nitrocellulose filter, and said filter was immersed in 0.1 M sodium citrate buffer (pH 5.0) containing 0.5 mM luciferin [Wood & DeLuca, Anal. Biochem., 161, 501-507 (1987)]. The emission of light from said colonies was monitored, and 3 strains with raised emission could be obtained. These strains were designated E. coli JM 109 (pGGA2-1), E. coli JM 109 (pGGA1-4) and E. coli JM 109 (pGGA2-4), respectively. The E. coli JM 109 (pGGA2-1), E. coli JM 109 (pGGA1-4) and E. coli JM 109 (pGGA2-4) thus obtained have been deposited respectively as FERM BP-6206, FERM BP-6205 and FERM BP-6204 with the National Institute of Bioscience and Human-Technology, Agency of Industrial Science and Technology. Plasmids were removed from these strains by alkali-SDS method. These plasmids were subjected to reaction with a dye primer tuck sequencing kit (Applied Biosystems) and analyzed by electrophoresis with an ABI 373A DNA sequencer (Applied Biosystems) to determine their mutation sites (Table 4).
(§3) From the E. coli JM 109 (pGGA2-1), E. coli JM 109 (pGGA1-4), E. coli JM 109 (pGGA2-4), their crude enzyme solutions were extracted by the method described in Example 1, and these mutant enzymes were purified in the method described in Japanese Patent Laid-Open Publication No. 141592/1989.The purified enzymes were designated GGA1 T219I luciferase, GGA1 V290I luciferase and GGA1 V239I luciferase, respectively. […] The emission of light from 5 seconds to 15 seconds after initiation of the reaction was integrated in Luminometer ML3000 (Dynatech) to determine catalytic efficiency (Vmax/Km). As shown in the table below, it was confirmed that as compared with the GGA1 luciferase, catalytic efficiency was improved by mutating each of the amino acids at the 219-, 290-, and 239-positions.

Data set [5] deals with GGA1 luciferase variant GGA1 V239I (239-position Val to Ile). The data set is described as above. Type of data set: biochemical, Luciola cruciata / Photinus pyralis. Particulars: ATP 0 to 1.0×10^-3 mM, 50 mM Tricine buffer (pH 7.8), 2.0 mM luciferin, 10 mM MgSO4; light integrated 5 to 15 seconds. The procedure: as §2, §3
Data set [6] concerns GGA1 luciferase variant GGA1 T219I (219-position Thr to Ile). The data set is described as above. Type of data set: biochemical, Luciola cruciata / Photinus pyralis. Conditions: ATP 0 to 1.0×10^-3 mM, 50 mM Tricine buffer (pH 7.8), 2.0 mM luciferin, 10 mM MgSO4; light integrated 5 to 15 seconds. The procedure: as §2, §3
Data set [7] has as its target T1, Luciola cruciata luciferase, wild type (Nipponoluciola cruciata, UniProt P13129).
T1 sequence (P13129 1-548): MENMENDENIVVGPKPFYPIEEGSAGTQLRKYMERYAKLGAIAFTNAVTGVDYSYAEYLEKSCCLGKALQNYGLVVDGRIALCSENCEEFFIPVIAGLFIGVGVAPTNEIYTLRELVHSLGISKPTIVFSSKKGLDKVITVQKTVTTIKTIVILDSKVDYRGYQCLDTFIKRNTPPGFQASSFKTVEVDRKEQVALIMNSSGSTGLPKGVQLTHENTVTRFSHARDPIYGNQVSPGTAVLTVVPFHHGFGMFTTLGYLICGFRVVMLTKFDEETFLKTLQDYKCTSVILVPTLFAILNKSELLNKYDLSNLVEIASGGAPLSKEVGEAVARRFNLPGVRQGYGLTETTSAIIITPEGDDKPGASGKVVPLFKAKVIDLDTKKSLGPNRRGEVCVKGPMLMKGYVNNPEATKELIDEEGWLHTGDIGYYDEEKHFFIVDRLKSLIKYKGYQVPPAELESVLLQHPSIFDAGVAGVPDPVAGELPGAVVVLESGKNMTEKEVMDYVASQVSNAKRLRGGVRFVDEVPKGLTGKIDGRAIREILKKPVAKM
In words: Km for substrate ATP, peak light emission (HEPES pH 7.5). Particulars: read-out: Km for the substrate ATP; ATP 0 to 2 mM, 50 mM HEPES (pH 7.5), 0.2 mM luciferin, 10 mM MgSO4. It is filed as biochemical.

Data set [8] deals with GA1 luciferase (fusion of Luciola cruciata luciferase N-terminal portion and Photinus pyralis luciferase C-terminal portion, SEQ ID NO:5). The data set is described as above. Type of data set: biochemical. Conditions: read-out: Km for the substrate ATP; ATP 0 to 2 mM, 50 mM HEPES (pH 7.5), 0.2 mM luciferin, 10 mM MgSO4.
The test system of data set [9] is GGA1 luciferase (fusion of thermostable Luciola cruciata luciferase N-terminal, Thr217Ile, and Photinus pyralis luciferase C-terminal, SEQ ID NO:7). It is filed as biochemical. Particulars: read-out: Km for the substrate ATP; purified GGA1 enzyme, Table 2.
Substrate in data set [10]: Nc1ncnc2c1ncn2[C@@H]1O[C@H](COP(=O)(O)OP(=O)(O)OP(=O)(O)O)[C@@H](O)[C@H]1O
The data set can be described thus: cells, lysate or membranes named. It is filed as biochemical, Luciola lateralis. Conditions: other: ATP 0 to 2 mM, 50 mM Tricine buffer (pH 7.8), 0.2 mM luciferin, 10 mM MgSO4. Here is the method: as §1

Sequence of Photinus pyralis luciferase, wild type (P08659 whole entry): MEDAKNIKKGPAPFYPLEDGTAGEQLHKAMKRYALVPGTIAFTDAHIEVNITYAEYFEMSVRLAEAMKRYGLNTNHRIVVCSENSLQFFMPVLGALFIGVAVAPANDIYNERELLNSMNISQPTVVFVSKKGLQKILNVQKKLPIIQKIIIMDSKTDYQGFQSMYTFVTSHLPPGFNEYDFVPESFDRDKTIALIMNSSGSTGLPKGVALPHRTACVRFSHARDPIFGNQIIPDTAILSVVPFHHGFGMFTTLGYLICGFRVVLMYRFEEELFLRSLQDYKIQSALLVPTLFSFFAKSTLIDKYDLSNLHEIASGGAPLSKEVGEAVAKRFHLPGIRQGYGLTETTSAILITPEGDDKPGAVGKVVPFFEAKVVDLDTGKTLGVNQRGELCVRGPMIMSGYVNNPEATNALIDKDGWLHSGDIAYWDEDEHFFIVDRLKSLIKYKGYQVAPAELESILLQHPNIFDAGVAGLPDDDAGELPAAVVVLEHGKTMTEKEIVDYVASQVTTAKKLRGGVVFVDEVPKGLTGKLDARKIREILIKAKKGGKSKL
Sequence of Photinus pyralis luciferase (P08659 whole entry): as above

With `Nc1ncnc2c1ncn2[C@@H]1O[C@H](COP(=O)(O)OP(=O)(O)OP(=O)(O)O)[C@@H](O)[C@H]1O` [ATP], the Km in data set [1] came out at 123 µM; in data set [2], 152 µM; in data set [3], 161 µM; in data set [7] it was 301 µM; in data set [8], 26.5 µM; in [9], 104 µM. Besides, the “Vmax/Km toward the substrate ATP” value in data set [4] is 1.70 × 10^9 RLU/mg; in data set [5], 1.58 × 10^9 RLU/mg; in data set [6] it was 2.16 × 10^9 RLU/mg.

B1: Luciola lateralis luciferase (Aquatica lateralis) (protein)
chain: MENMENDENIVYGPEPFYPIEEGSAGAQLRKYMDRYAKLGAIAFTNALTGVDYTYAEYLEKSCCLGEALKNYGLVVDGRIALCSENCEEFFIPVLAGLFIGVGVAPTNEIYTLRELVHSLGISKPTIVFSSKKGLDKVITVQKTVTAIKTIVILDSKVDYRGYQSMDNFIKKNTPQGFKGSSFKTVEVNRKEQVALIMNSSGSTGLPKGVQLTHENAVTRFSHARDPIYGNQVSPGTAILTVVPFHHGFGMFTTLGYLTCGFRIVMLTKFDEETFLKTLQDYKCSSVILVPTLFAILNRSELLDKYDLSNLVEIASGGAPLSKEIGEAVARRFNLPGVRQGYGLTETTSAIIITPEGDDKPGASGKVVPLFKAKVIDLDTKKTLGPNRRGEVCVKGPMLMKGYVDNPEATREIIDEEGWLHTGDIGYYDEEKHFFIVDRLKSLIKYKGYQVPPAELESVLLQHPNIFDAGVAGVPDPIAGELPGAVVVLEKGKSMTEKEVMDYVASQVSNAKRLRGGVRFVDEVPKGLTGKIDGKAIREILKKPVAKM
Take B1: in data set [10], the Km came out at 197 µM.
